Source: PMC11317440, “Soloxolone para-methylanilide effectively suppresses aggressive phenotype of glioblastoma cells including TGF-β1-induced glial-mesenchymal transition in vitro and inhibits growth of U87 glioblastoma xenografts in mice” (Frontiers in Pharmacology, 2024)

Assays:
U87 cells [1] = experiment: MTT assay 72 h, 7 and TMZ alone and combined, synergy (HSA), U87; assay type: cell-based, human
Procedure: (§1) The drug synergy score was calculated for the dose-response matrix according to the highest single-agent (HSA) model using the SynergyFinder + web application (https://www.synergyfinder.org/).

U87 cells [2] = experiment: Annexin V-FITC/propidium iodide flow cytometry, U87, 72 h, TMZ/7/NAC; assay type: cell-based, human; conditions: U87, TMZ 500 μM, 7 600 nM
Procedure: […] To quantify the total proportion of apoptotic cells in control and experimental groups, the events accumulated in the lower right quadrant (early apoptosis) and upper right quadrant (late apoptosis) were summarized.
(§2) After staining, 10,000 cells per sample were analyzed on a NovoCyte flow cytometer using NovoExpress software (ACEA Biosciences, Inc., USA).

[3] = Toxicity assessment in U87 glioblastoma-bearing mice; assay type: in vivo, athymic nude mice; conditions: 7 20 mg/kg i.p. or TMZ 10 mg/kg i.p. injected alone
Procedure: During the experiment, the general status and body weight of the animals were monitored. At the end of the experiment, livers and kidneys were collected and organ indices were calculated as (organ weight/body weight) × 100%, followed by the normalization of organ indices of experimental mice to organ indices of control mice.

[4] = system: U87 glioblastoma tumor tissue; experiment: Histology and immunohistochemistry of U87 xenograft tumors; assay type: in vivo, athymic nude mice; conditions: day 19
Procedure: For the histological study, the tumor specimens were fixed in 10% neutral-buffered formalin (BioVitrum, Moscow, Russia), dehydrated in ascending ethanols and xylols and embedded in HISTOMIX paraffin (BioVitrum, Russia). The paraffin sections (3–4 µm) were sliced on a Microm HM 355S microtome (Thermo Fisher Scientific, Waltham, MA, USA) and stained with hematoxylin and eosin.
For the immunohistochemical study, the tumor sections were deparaffinized and rehydrated. Antigen retrieval was carried out after exposure in a microwave oven at 700 W. The samples were incubated with anti-Ki-67 (ab16667, Abcam, Boston, MA, USA) (n = 3), anti-GFAP (ab194325, Abcam, USA) (n = 3), and anti-N-cadherin (ab76011, Abcam, USA) (n = 3) primary antibodies according to the manufacturer’s protocol. Then, the sections were incubated with secondary horseradish peroxidase (HPR)-conjugated antibodies, exposed to the 3,30-diaminobenzidine (DAB) substrate (Rabbit Specific HRP/DAB (ABC) Detection IHC Kit, ab64261, Abcam, USA) and stained with Mayer’s hematoxylin.
Five to ten random fields were examined from the tumor specimens of three mice in each group, for a total of 15–30 test fields.

U118 cells = experiment: MTT assay 72 h, 7 and TMZ alone and combined, synergy (HSA), U118; assay type: cell-based, human
Procedure: as §1

EPNT-5 cells = experiment: MTT assay 72 h, 7 and TMZ alone and combined, synergy (HSA), EPNT-5; assay type: cell-based, mouse; conditions: MTT
Procedure: as §1

[5] = system: U87 glioblastoma xenograft; experiment: U87 glioblastoma xenograft model; assay type: in vivo, athymic nude mice; conditions: end of the experiment (day 19); 7 20 mg/kg i.p., TMZ 10 mg/kg i.p.
Procedure: A xenograft model of tumor progression was induced by subcutaneous (s.c.) implantation of U87 glioblastoma cells (2×10^7 cells/mL) suspended in 0.1 mL of saline buffer into the left flank of athymic nude mice. On day 4 after tumor transplantation, the mice were divided into four groups: (1) mice received intraperitoneal (i.p.) injections of 10% Tween-80 (vehicle) (n = 6); (2) mice received i.p. injections of compound 7 in 10% Tween-80 at a dose of 20 mg/kg (n = 5); (3) mice received i.p. injections of TMZ in saline buffer at a dose of 10 mg/kg (n = 5); (4) mice received combination therapy of compound 7 and TMZ at the same dosage and administration route (n = 6). Compound 7 was administered three times per week; in total seven injections were performed. TMZ was administered daily except weekends; in total eleven injections were performed. During the experiment, the tumor volumes were determined three times per week using caliper measurements and were calculated as V = (D × d^2)/2, where D is the longest diameter of the tumor node and d is the shortest diameter of the tumor node perpendicular to D. Mice were sacrificed on day 19 after tumor transplantation and material (tumor nodes, livers, and kidneys) was collected for subsequent analysis.

[6] = system: ROS production in U87 cells; experiment: Intracellular ROS (DCFDA staining, flow cytometry), U87; assay type: cell-based, human; conditions: U87, TMZ 125 μM, 7 100 nM, NAC 2 mM, 72 h
Procedure: Intracellular ROS levels were measured according to previously published studies ([Han et al., 2008]; [Samandari-Bahraseman et al., 2023]; [Kopsida et al., 2024]), using the DCFDA/H2DCFDA Cellular ROS Assay Kit (Abcam, Cambridge, United Kingdom). U87 cells were incubated with 7 and TMZ with or without NAC for 72 h (n = 3). Cells were then washed with PBS and incubated with 20 µM H2DCFDA for 30 min under standard conditions, followed by the removal of H2DCFDA-containing medium and double washing with PBS.
as §2

U87 glioblastoma cells = experiment: MTT cell viability assay, U87 cells, 48 h; assay type: cell-based, human; conditions: for relative cytotoxicity: 48 h of incubation, U87; for MNTC: Homo sapiens, U-87 MG, 48 h, read-out: non-toxic concentration that reduced U87 cell viability by less than 10%
Procedure: Cells were seeded in quadruplicate in 96-well plates at 10,000 cells/well and allowed to adhere overnight. The medium was then replaced with serum-free DMEM containing increasing concentrations of soloxolone amides for 48 h. After incubation, 3-(4,5-dimethylthiazol-2-yl)-2,5-diphenyltetrazolium bromide (MTT dye) was added at a final concentration of 0.5 mg/mL and left for 2 h. The resulting formazan crystals were dissolved in DMSO and the optical density was measured at 570 nm using a Multiscan RC plate reader (Thermo LabSystems, Helsinki, Finland).

TGF-β1-treated U87 cells = experiment: Adhesion of U87 cells to culture plastic (TrypLE treatment assay); assay type: cell-based, human; conditions: TGF-β1 50 ng/mL, non-toxic concentrations, 48 h
Procedure: Adhesiveness of glioblastoma cells was assessed by two independent methods. First, cell adhesion to culture plastic was tested using a trypsin treatment assay, as previously described ([Sava et al., 2004]; [Mazuryk et al., 2015]; [van Dijk et al., 2017]). Briefly, U87 and U118 cells (10,000 cells per well of a 96-well plate, n = 4) were cultured with TGF-β1 (50 ng/mL) and non-toxic concentrations of soloxolone amides for 48 h and then treated with a 1:20 dilution of TrypLE Express (Gibco, USA) in PBS for 3 min at 37°C. Non-adherent cells were then removed by a triple PBS wash, and the remaining adherent cells were fixed with 4% formaldehyde and stained with crystal violet dye (0.1% w/v). Images were captured using the iBright 1,500 Imaging System (Invitrogen, USA), and the cell-occupied area was calculated using ImageJ. Alternatively, the number of adherent cells was quantified using the MTT assay.

TGF-β1-induced U87 cells = experiment: Cell morphology (cell size) of TGF-β1-induced U87 cells; assay type: cell-based, human; conditions: TGF-β1 50 ng/mL, non-toxic concentrations, 48 h
Procedure: After seeding at a concentration of 5,000 cells/well in triplicate in 96-well plates and incubating overnight, U87 and U118 cells were exposed to TGF-β1 (50 ng/mL) and non-toxic concentrations of soloxolone amides for 48 h. An EVOS XL Core microscope with an integrated CMOS camera (Thermo Fisher Scientific, USA) was then used to examine cell morphology at ×20 magnification. Aspect ratio (AR) and area were quantified for at least 150 cells in each experimental group using ImageJ software (NIH, USA).

[7] = system: U87 glioblastoma xenograft; parameters: method as in Markov et al., 2022a; conditions: 9 administered at a similar dose and schedule; ref Markov et al., 2022a; cited from earlier work
U87 primary tumorspheres = system: U87 primary tumorspheres; parameters: method as in Markov et al., 2023; conditions: ref Markov et al., 2023; cited from earlier work

Cn1nnc2c(C(N)=O)ncn2c1=O [TMZ, temozolomide, reference compound]
IC50 (U87 cells [1]; MTT): 213 µM | reduction of the cytotoxic effect by NAC (U87 cells [1]; U87, NAC 2 mM, TMZ 125 μM, 7 100 nM): 22.3% | cells in the right quadrants (apoptosis) (U87 cells [2]): 9% | toxic effects (body weight and organ indices) [3]: no toxic effects | N-cadherin and GFAP levels in tumor sections (immunohistochemistry) [4]: significantly reduced their levels | reduction in the numerical density of Ki-67-positive cells compared to vehicle [4]: 9 fold | IC50 (U118 cells; MTT): > 500 µM | reduction of the cytotoxic effect by NAC (U118 cells; U118, NAC 2 mM, TMZ 125 μM, 7 100 nM): 32.5% | IC50 (EPNT-5 cells): > 500 µM | reduction in tumor weight compared to the vehicle [5]: 21.9 fold | ROS accumulation (in words) [6]: did not increase ROS accumulation

CC1(C)C(=O)C(C#N)=C[C@]2(C)C3=CC(=O)[C@@H]4[C@@H]5C[C@@](C)(C(=O)NCCCCCO)CC[C@]5(C)CC[C@@]4(C)[C@]3(C)CCC12 (stereo partly drawn) [compound 2, N-(5′-hydroxypentyl)-2-cyano-3,12-dioxo-18βH-olean-9(11),1(2)-dien-30-amide]
relative cytotoxicity (U87 glioblastoma cells): moderate | MNTC (U87 glioblastoma cells): 100 nM

CN(C)CCNC(=O)[C@@]1(C)CC[C@]2(C)CC[C@]3(C)[C@H](C(=O)C=C4[C@@]5(C)C=C(C#N)C(=O)C(C)(C)C5CC[C@]43C)[C@@H]2C1 (stereo partly drawn) [compound 3, N-(2′-(dimethylamino)ethyl)-2-cyano-3,12-dioxo-18βH-olean-9(11),1(2)-dien-30-amide]
relative cytotoxicity (U87 glioblastoma cells): low | MNTC (U87 glioblastoma cells): 300 nM | adhesion of TGF-β1-treated U87 cells to culture plastic (crystal violet) (TGF-β1-treated U87 cells): restoring it to control levels

CN(C)CCCNC(=O)[C@@]1(C)CC[C@]2(C)CC[C@]3(C)[C@H](C(=O)C=C4[C@@]5(C)C=C(C#N)C(=O)C(C)(C)C5CC[C@]43C)[C@@H]2C1 (stereo partly drawn) [compound 4, N-(3′-(dimethylamino)propyl)-2-cyano-3,12-dioxo-18βH-olean-9(11),1(2)-dien-30-amide]
relative cytotoxicity (U87 glioblastoma cells): low | MNTC (U87 glioblastoma cells): 300 nM

CC1(C)C(=O)C(C#N)=C[C@]2(C)C3=CC(=O)[C@@H]4[C@@H]5C[C@@](C)(C(=O)Nc6ccc(Br)cc6)CC[C@]5(C)CC[C@@]4(C)[C@]3(C)CCC12 (stereo partly drawn) [compound 5, N-(4′-bromophenyl)-2-cyano-3,12-dioxo-18βH-olean-9(11),1(2)-dien-30-amide]
relative cytotoxicity (U87 glioblastoma cells): high | MNTC (U87 glioblastoma cells): 50 nM | effect on size/morphology of TGF-β1-induced U87 cells (TGF-β1-induced U87 cells): restored their morphological characteristics to the control cells

CC1(C)C(=O)C(C#N)=C[C@]2(C)C3=CC(=O)[C@@H]4[C@@H]5C[C@@](C)(C(=O)Nc6cccnc6)CC[C@]5(C)CC[C@@]4(C)[C@]3(C)CCC12 (stereo partly drawn) [compound 6, N-(pyridin-3-yl)-2-cyano-3,12-dioxo-18βH-olean-9(11),1(2)-dien-30-amide]
relative cytotoxicity (U87 glioblastoma cells): moderate | MNTC (U87 glioblastoma cells): 100 nM

CC(C)(C)c1cc(CCCNC(=O)[C@@]2(C)CC[C@]3(C)CC[C@]4(C)[C@H](C(=O)C=C5[C@@]6(C)C=C(C#N)C(=O)C(C)(C)C6CC[C@]54C)[C@@H]3C2)cc(C(C)(C)C)c1O (stereo partly drawn) [compound 8, N-(3′-(3″,5″-di-tert-butyl-4″-hydroxyphenyl)propyl)-2-cyano-3,12-dioxo-18βH-olean-9(11),1(2)-dien-30-amide]
relative cytotoxicity (U87 glioblastoma cells): high | MNTC (U87 glioblastoma cells): 50 nM

CC1(C)C(=O)C(C#N)=C[C@]2(C)C3=CC(=O)[C@@H]4[C@@H]5C[C@@](C)(C(=O)NCCc6c[nH]c7ccccc67)CC[C@]5(C)CC[C@@]4(C)[C@]3(C)CCC12 (stereo partly drawn) [compound 9]
relative cytotoxicity (U87 glioblastoma cells): moderate | MNTC (U87 glioblastoma cells): 100 nM | effect on size/morphology of TGF-β1-induced U87 cells (TGF-β1-induced U87 cells): restored their morphological characteristics to the control cells | reduction in tumor weight compared to the vehicle-treated group [7]: 3.4 fold | concentration causing a large-scale reduction of spheroids (U87 primary tumorspheres): 4 µM
